Measured values: patent US20230190887A1, “TARGETING G3BP AGGREGATION TO PREVENT NEURODEGENERATION” (priority 2019, published 2023)

Test system: NMJs in co-cultures with puromycin-resistant muscles
Test: NMJ function after local protein synthesis inhibition
Format: cell-based, mouse
Details: Puromycin 100 μg/mL exclusively in NMJ compartment, 16 h
Description: Analysis of NMJ function following protein synthesis inhibition with puromycin was performed by co-culturing WT MNs with primary muscles transfected with empty […]-mCherry vectors expressing PAC gene for puromycin resistance. After 12 days in co-culture, once cultures matured and NMJ were formed, Puromycin (100 μg/mL) was added exclusively to the distal (NMJ) compartment for 16 h. The proximal compartment was kept with higher volume of medium for allowing puromycin to act only locally within the NMJ compartment. After 16 h, cultures were labeled with OGB, and the calcium activity of axons and muscles was recorded. Analysis of the percent of muscles with calcium transients in co-culture, was performed on muscles with at least one overlapping axon. Only muscles that expressed mCherry (as a reporter for the expression of PAC) were used for this analysis. OGB lyophilized stock (Life technologies) was resuspended with 20% (w/v) Pluronic acid for a stock concentration of 3 mM Stock was diluted 1:1,000 in the appropriate medium. OGB was incubated with cultures for […] in 37° C., 5% CO2 incubator, and then washed 3 times with culture medium prior imaging. Calcium transients in axons and muscles were recorded in a spinning disk confocal microscope equipped with an EMCCD camera with ×40 oil objective using 488 nm laser. Image sequences of 1,000 frames were acquired at frame rate of 25 FPS. […]

## COc1ccc(C[C@H](N)C(=O)N[C@H]2[C@@H](O)[C@H](n3cnc4c(N(C)C)ncnc43)O[C@@H]2CO)cc1 [puromycin, Puromycin]
  active (innervated and contracting) muscles, calcium transients: pronounced decrease in active muscles
